Data set [1] deals with rat. The note with it: 1 hour inhalation; cited from earlier work.
Data set [2] in a line: Flammability limit tests of cyanogen/CO2 mixtures in air. It counts as physicochemical. The text has this: The apparatus allows continuous metering and mixing of known proportions of cyanogen, carbon dioxide and air. This permitted a number of ignition tests to be made in a relatively short period.
The apparatus comprises sources of compressed air 1, carbon dioxide 2 and the active chemical cyanogen 3. […] The resultant mixture flows through tube 7 where it is diverted to an oxygen analyser 8 to determine its content, and an ignition tube 9 with ignition source 10 for flammability testing.
Similarly, for the tests involving the addition of carbon dioxide, the proportions of air and CO2 were set using the previously arrived calibration material and at least two minutes were allowed to elapse between adjustment of the CO2/air proportions and ignition tests.
Ignition tests involved switching a high voltage across an approximately 5 mm gap 10 within the flow ignition tube 9. […]
Turning to FIG. 2, it is now possible to determine what proportion of cyanogen in carbon dioxide will remain inert in all proportions with air. Line A shown in FIG. 2 has the maximum slope that can be achieved whilst still remaining wholly below the experimentally determined lower explosive limits and passing through the origin.
For reasons of safety, the Applicant has determined a preferred content of around 20% v/v as this gives an additional margin of safety.

The conditions of data set [3]: cited from earlier work.

The structures appear in SMILES notation.

A word on the LC50: it is the concentration that kills 50% of the test population.

Take `N#CC#N` [cyanogen]: the LC50 in data set [1] was 350 ppm. Further, the “maximum proportion of cyanogen in carbon dioxide which is inert in all proportions with air” value in data set [2] (from slope of Line A in FIG. 2, ignition source 2) is listed as “approximately 26%”. Besides, the “maximum of cyanogen in carbon dioxide gas inert in all proportions of air” value in data set [2] (subsequent testing) is given as “around 26 % v/v”. Also, in data set [3], the “Flammability limits in air” value is on record as 6-32 % v/v. Further, in data set [3] (literature value), the “known LEL of cyanogen in air” value is on record as 6% and the “known UEL of cyanogen in air” value is reported as 32 % v/v.

Source of the values: patent publication US20070077311A1, “Fumigant/sterilant” (priority 2003, published 2007).
